Experimental data published in PubChem BioAssay AID2305 (GlaxoSmithKline (GSK), 2010).

tested on: P. falciparum 3D7 growth, pLDH absorbance; test: blood-stage malaria parasite growth potency – strain 3D7, dose response (AID 2305)

Q: `O=c1cc(NCCCNCc2[nH]c3cc(Cl)cc(Cl)c3c2Cn2cccn2)[nH]c2ccccc12` was tested. Which IC50 did it give?
A: 0.97 µM

Q: How did the IC50 turn out when `O=C(NC(c1ccc(Cl)cc1)c1ccc2cccnc2c1O)c1ccccc1` (stereo not drawn) was run?
A: 0.56 µM

Q: Which IC50 does the source give for `COc1cc2nc(-c3ccccc3)nc(N3CCN(C(=O)c4ccco4)CC3)c2cc1OC` here?
A: 1.41 µM

Q: With `CCCCCCCc1c(C)[nH]c2cc(OC)ccc2c1=O` as the compound, how does the IC50 read?
A: 0.06 µM

Q: `O=C(Nc1ccc(-c2cccc(CN3CCC(O)CC3)c2)cc1)c1cccc(Cl)c1` was tested. Which IC50 did it give?
A: 0.83 µM

Q: For `CN(C)c1ccc(-c2ccc(C(=O)NC3CCN(Cc4ccc5c(c4)OCCO5)CC3)s2)cc1`, which IC50 is on record?
A: 1.12 µM

Q: For `CC1CN(c2ccc(NC(=O)c3ccsc3)cc2C(=O)N2CCN(Cc3ccc(C(C)(C)C)cc3)CC2)CC(C)O1` (stereo not drawn), which IC50 is on record?
A: 0.87 µM

Q: Which IC50 does the source give for `Cc1cc(C(F)(F)F)cc(-n2ncc(-c3ccc(C(=O)NCCNCc4ccccc4)cc3)c2N)n1` here?
A: 1.07 µM

Q: For `COC(=O)/C=C/c1ccc(CCC(C)NCC(O)c2cccc(Cl)c2)cc1` (stereo not drawn), which IC50 is on record?
A: 0.94 µM

Q: With `Cc1cccc(NC(=O)c2cnc(N3CCN(c4ccncc4)CC3)c(Cl)c2)c1` as the compound, how does the IC50 read?
A: 0.68 µM

Q: For `Cc1cccc2[nH]c(-c3cccc(-c4ccc(NC(=O)c5cnccc5C(F)(F)F)cc4)c3)nc12`, which IC50 is on record?
A: 0.7 µM

Q: Which IC50 does the source give for `CC(C)[C@H](NC(=O)c1ccc(O)c(-c2ccc(Cl)c(Cl)c2)c1)C(=O)NCCN1CCCCC1` here?
A: 0.34 µM

Q: With `CC(C)NCc1cccc(-c2cccc(-c3nc4ccccc4[nH]3)c2)c1` as the compound, how does the IC50 read?
A: 0.8 µM

Q: How did the IC50 turn out when `COc1ccc(O)cc1Cc1cnc2nc(N)nc(N)c2c1C` was run?
A: 0.01 µM

Q: How did the IC50 turn out when `Cc1noc(C)c1-c1cccc(CNCc2cccc(-c3csc(-c4nc5ccccc5[nH]4)c3)c2)c1` was run?
A: 0.26 µM

Q: With `COc1ccc2ncc(F)c(CCN3[C@@H]4CC[C@H]3CC(NCc3cc5c(cn3)OCS5)C4)c2n1` (stereo partly drawn) as the compound, how does the IC50 read?
A: 0.92 µM

Q: Which IC50 does the source give for `OCCC1CCN(Cc2ccc(-c3ccc(-c4nc5ccccc5[nH]4)cc3)cc2)CC1` here?
A: 0.77 µM

Q: With `CCc1cn(CCOC)c2ccc(C(=O)N[C@@H](Cc3ccccc3)[C@H](O)CNC(C)(C)CCCC(C)C)cc12` as the compound, how does the IC50 read?
A: 0.57 µM

Q: How did the IC50 turn out when `CN(C)C(=O)O[C@@H]1CN[C@H](C#Cc2cc3ncnc(Nc4ccc5c(cnn5Cc5cccc(F)c5)c4)c3s2)C1` was run?
A: 0.76 µM

Q: Which IC50 does the source give for `COc1cc(NCC(C)CNCc2cn(Cc3ccccc3)c3ccccc23)nc2ccccc12` (stereo not drawn) here?
A: 0.63 µM

Q: Which IC50 does the source give for `c1ccc(CNCc2ccc(-c3cccc(-c4nc5ccccc5[nH]4)c3)cc2)cc1` here?
A: 0.42 µM

Q: For `CCN(CCCN1CCCCC1)c1cc(C)nc(Nc2ccc3c(c2)CCC3)n1`, which IC50 is on record?
A: 0.39 µM

Q: With `O=c1cc(NCCC(CNCCc2ccccc2)NCc2cc(Br)cc(Br)c2)[nH]c2ccccc12` (stereo not drawn) as the compound, how does the IC50 read?
A: 0.51 µM

Q: How did the IC50 turn out when `COc1cccc(C(NC(=O)c2ccccc2)c2ccc3cccnc3c2O)c1` (stereo not drawn) was run?
A: 1.08 µM

Q: Which IC50 does the source give for `CC1(C)CCCN(C(=O)c2cccc(-n3nc(-c4ccc(Cl)cc4)cc3N)c2)C1` here?
A: 0.71 µM

Q: For `N=C(N)c1ccc(C=CC(=O)NCC(O)CNC(=O)C=Cc2ccc(C(=N)N)cc2)cc1` (stereo not drawn), which IC50 is on record?
A: 0.03 µM

Q: `N#Cc1ccc(C(=O)Nc2ccc(Cl)c(N3CCN(CCc4ccccc4)CC3)c2)cc1` was tested. Which IC50 did it give?
A: 0.93 µM

Q: How did the IC50 turn out when `Cn1cncc1C(=O)Nc1cccc(-c2ccc(-c3nc4ccc(C(F)(F)F)cc4[nH]3)cc2)c1` was run?
A: 0.51 µM

Q: For `COc1ccc(OC)c(CNCC(O)c2cc(C(F)(F)F)cc(C(F)(F)F)c2)c1` (stereo not drawn), which IC50 is on record?
A: 0.44 µM

Q: Which IC50 does the source give for `CCOc1cc(C)ccc1N1CCN(CCCCNC(=O)c2ccc(NC(=O)c3ccc(Cl)cc3)cc2)CC1` here?
A: 0.64 µM

Q: Which IC50 does the source give for `CC(=O)c1ccccc1C(=O)N1CCOc2ccc(C(O)C(c3ccccc3)c3ccccc3)cc2C1` (stereo not drawn) here?
A: 0.9 µM

Q: With `COc1ccccc1C1CCN(C2CCC(NC(=O)/C=C/c3ccc4c(c3)OC(F)(F)O4)CC2)CC1` (stereo not drawn) as the compound, how does the IC50 read?
A: 0.84 µM

Q: Which IC50 does the source give for `CN(C)C1CCN(CC#Cc2cc3ncnc(Nc4ccc(OCc5cccc(F)c5)c(Cl)c4)c3s2)CC1` here?
A: 0.89 µM

Q: `CC(C)C(=O)NC(c1ccc(N(C)C)cc1)c1cc(Cl)c2cccnc2c1O` (stereo not drawn) was tested. Which IC50 did it give?
A: 0.86 µM

Q: With `COc1ccc2nc(C)cc(NN=Cc3ccccc3Cl)c2c1` as the compound, how does the IC50 read?
A: 0.6 µM

Q: With `CCOc1ccc(NC(=O)c2cn3nc(-c4ccc(OCC)cc4)cc3nc2C2CCNCC2)cc1` as the compound, how does the IC50 read?
A: 0.51 µM

Q: With `CC(C)C[C@H](NC(=O)OC(C)(C)C)C(=O)Nc1ccc(Cc2ccc(NC(=O)[C@H](CC(C)C)NC(=O)OC(C)(C)C)cc2)cc1` as the compound, how does the IC50 read?
A: 0.76 µM

Q: `Cc1cccc(OCC2CCN(c3ncc(C(=O)NC4CC4)cc3Cl)CC2)c1` was tested. Which IC50 did it give?
A: 1.33 µM
